Results from patent US20210363233A1, “TREATMENT OF A DISEASE OF THE GASTROINTESTINAL TRACT WITH AN IL-12/IL-23 INHIBITOR” (Progenity, Inc., priority 2018, published 2021).
Counter-ions that a name gives are not always drawn. Like-named read-outs stand apart in the source and are kept apart here.

What was measured:
[1] = Tissue, plasma and GI content pharmacokinetics of tacrolimus, oral vs intra-cecal ingestible device delivery (Example 10); assay type: in vivo, Yorkshire-Cross farm swine; conditions: female, Yorkshire-Cross, pig
Protocol: The primary objective of this study was to compare the tissue, plasma, rectal sample, and GI content pharmacokinetics of tacrolimus through oral versus intra-cecal ingestible device delivery in normal Yorkshire-Cross farm swine.
(§1) No further randomization procedure was employed.
Animals in Group 1 received an ingestible device containing 0.8 mL of vehicle solution (80% alcohol, 20% HCO-60). Animals in Group 2 received orally […] liquid formulation of tacrolimus at 4 mg/0.8 mL per animal (Prograf: 5 mg/mL). Animals in Group 3 received intra-cecally an ingestible device containing tacrolimus at 1 mg in 0.8 mL per ingestible device. Animals in Group 4 received intra-cecally an ingestible device containing tacrolimus at 2 mg in 0.8 mL per ingestible device. Animals in Group 5 received intra-cecally an ingestible device containing tacrolimus at 4 mg in 0.8 mL per ingestible device. To control for potential confounding effects of the surgery, all groups fast on Day −11 at least 24 hr before being subjected to anesthesia followed by surgical placements of a cecal port by a veterinary surgeon at Day −10. All animals were fasted for at least 12 hr prior to dosing on Day 1. Animals were dosed via either intra-cecal dosing (IC) or oral dosing (PO) at Day 1 (between […].). […]
Approximately 200˜400 mg of rectal content were collected, if available, with a fecal swab (Copan Diagnostics Nylon Flocked Dry Swabs, 502CS01). The fecal swab was pre-weighed and weighed after collection in the collection tube (Sterile Tube and Cap No Media, PFPM913S), and the sample weight was recorded. […]
For tissue necropsy, small intestine fluid and cecal fluid were collected separately from all the animals into two separate square plastic bottles, and stored at −20° C. The length and diameter of the cecum and the colon was measured from one animal in each group and recorded for reference. […] All samples were weighed, and the tissue sample weights were recorded. […] Around 3 grams of the total punched sample were collected into a pre-weighed 15-mL conical tube, and the tissue weight was recorded. […]

[2] = Pharmacokinetic study of oral vs intra-cecal administration of tacrolimus (Example 13); assay type: in vivo, Yorkshire-Cross farm swine; conditions: female, Yorkshire-Cross
Description: as §1

[3] = system: cytokines involved in the JAK/STAT signaling pathway; conditions: PO or IC administration; 1 h and 3 h post-treatment

Compound	Cmax ([1]; in vivo, 0.09 mg/kg, Route PO, Dose (mg · kg) 0.09)	concentration at 12 h ([1]; in vivo, po, Trough (12 hr))	concentration at 12 h ([1]; whole blood, other: oral and intra-cecal (all groups), all groups (FIGS. 87-89 and Table 29), read-out: blood trough concentrations)	Cmax ([2]; pig, blood, Route PO, Dosage 0.09 mg/kg)	AUC(0-t) ([2]; pig, in vivo, po, 0.09 mg/kg)	Ratio Tissue(mean) (ng/g)/Trough(12 hr)(ng/mL) ([2]; pig, in vivo, po, 0.09 mg/kg)	Ratio Tissue(mean) (ng/g)/Trough(12 hr)(ng/mL) ([2]; swine, in vivo, po, 0.09 mg/kg)	IL-6 expression in plasma [3]
C=CC[C@@H]1/C=C(\C)C[C@H](C)C[C@H](OC)[C@H]2O[C@@](O)(C(=O)C(=O)N3CCCC[C@H]3C(=O)O[C@H](/C(C)=C/[C@@H]3CC[C@@H](O)[C@H](OC)C3)[C@H](C)[C@@H](O)CC1=O)[C@H](C)C[C@@H]2OC [tacrolimus]	3.53 ± 3.84 ng/mL	9.57 ± 0.291 ng/mL	< 10 ng/mL	3.53 ± 3.84 ng/mL	16.8 ± 3.64 ng·h/mL	0	0	–
C[C@@H]1CCN(C(=O)CC#N)C[C@@H]1N(C)c1ncnc2[nH]ccc12 [tofacitinib citrate]	–	–	–	–	–	–	–	inhibition of IL-6 expression was observed
